Target: Photosystem II protein D1 (Spinacia oleracea, UniProt P69560)
Test: Inhibition of photosynthetic electron transport at the PSII level in intact chloroplasts from Spinacia oleracea (spinach) leaves assessed as inhibition of in vitro activity by Hill reaction assay

| IC50 (read-out: IC50) [µM] | SMILES | also measured |
| --- | --- | --- |
| 2.84 | S=c1sc(NCc2ccccc2)nc2[nH]ncc12 | – |
| – | Cc1cc2[nH]c(=O)n(C3CCCCC3)c(=O)n2n1 | IC50 (read-out: pIC50 (converted)): 0.32 µM |
| – | CCCCn1c(=O)[nH]c2cc(C)nn2c1=O | IC50 (read-out: pIC50 (converted)): 6.61 µM |
| 15.3 | S=c1sc(Nc2cccc(Cl)c2)nc2[nH]ncc12 | – |
| – | Cc1cc2[nH]c(=O)n(Cc3ccccc3)c(=O)n2n1 | IC50 (read-out: pIC50 (converted)): 42 µM |
| – | CCC(C)n1c(=O)[nH]c2cc(C)nn2c1=O (configuration not stated) | IC50 (read-out: pIC50 (converted)): 2.6 µM |
| 2.78 | FC(F)(F)c1cccc(Nc2nc3[nH]ncc3c(=S)s2)c1 | – |
| – | CCn1c(=O)[nH]c2cc(C)nn2c1=O | IC50 (read-out: pIC50 (converted)): 32 µM |
| 211 | CCCCNc1nc2[nH]ncc2c(=O)s1 | – |
| 28.5 | O=c1sc(Nc2ccc(Br)cc2)nc2[nH]ncc12 | – |
| 48 | O=c1sc(Nc2cccc(Cl)c2)nc2[nH]ncc12 | – |
| 1040 | Cc1c(C(=O)O)c(C(=O)NC(C)(C)C)nn1-c1c(Cl)cc(C(F)(F)F)cc1Cl | – |
| 38.5 | O=c1sc(Nc2ccc(Cl)cc2)nc2[nH]ncc12 | – |
| 1060 | O=c1sc(Nc2ccc([N+](=O)[O-])cc2)nc2[nH]ncc12 | – |
| 100 | Cc1onc(C(=O)NC2CC2)c1C(=O)O | – |
| 43.1 | S=c1sc(Nc2ccccc2Cl)nc2[nH]ncc12 | – |
| > 100000 | Cc1c(C(=O)O)c(C(=O)NC(C)(C)C)nn1C(C)(C)C | pIC50: < 1 |
| 22500 | Cc1c(C(=O)O)c(C(=O)NC2CC2)nn1-c1ccccc1 | – |
| – | Cc1cc2[nH]c(=O)s/c(=N/Cc3ccccc3)n2n1 | IC50 (read-out: pIC50 (converted)): 18 µM |
| 950 | Cc1c(C(=O)O)c(C(=O)NC(C)(C)C)nn1-c1ccc(Cl)cc1 | – |
| – | CC/N=c1/sc(=O)[nH]c2cc(C)nn12 | IC50 (read-out: pIC50 (converted)): 2.9 µM |

| IC50 (read-out: IC50) [µM] | SMILES | also measured |
| --- | --- | --- |
| 21.3 | S=c1sc(Nc2ccc(Cl)cc2)nc2[nH]ncc12 | – |
| – | Cc1cc2[nH]c(=O)n(-c3ccccc3)c(=O)n2n1 | IC50 (read-out: pIC50 (converted)): 169 µM |
| – | O=c1[nH]c2c(c(=O)n1C1CCCCC1)CCC2 [LENACIL] | IC50 (read-out: pIC50 (converted)): 0.08 µM |
| – | Cc1cc2[nH]c(=O)s/c(=N/C3CCCCC3)n2n1 | IC50 (read-out: pIC50 (converted)): 0.21 µM |
| 10.8 | O=c1sc(NCc2ccccc2)nc2[nH]ncc12 | – |
| 370 | Cc1c(C(=O)O)c(C(=O)NC2CC2)nn1-c1ccc(Cl)cc1 | – |
| 33.2 | O=c1sc(Nc2cccc(C(F)(F)F)c2)nc2[nH]ncc12 | – |
| 335 | CCNc1nc2[nH]ncc2c(=O)s1 | – |
| 1190 | Cc1c(C(=O)O)c(C(=O)NC2CC2)nn1C | – |
| 68000 | Cc1c(C(=O)O)c(C(=O)NC2CC2)nn1C(C)(C)C | – |
| 7600 | Cc1c(C(=O)O)c(C(=O)NC(C)(C)C)nn1-c1ccccc1 | – |
| 66.5 | O=c1sc(NC2CCCCC2)nc2[nH]ncc12 | – |
| > 100000 | Cc1[nH]nc(C(=O)NC2CC2)c1C(=O)O | pIC50: < 1 |
| – | CN(C)C(=O)Nc1ccc(Cl)c(Cl)c1 [DCMU] | IC50 (read-out: pIC50 (converted)): 0.27 µM |
| 47.8 | O=c1sc(Nc2ccccc2Cl)nc2[nH]ncc12 | – |
| 10.7 | CCNc1nc2[nH]ncc2c(=S)s1 | – |
| – | CN(C)c1nc(=O)n(C2CCCCC2)c(=O)n1C [HEXAZINONE] | IC50 (read-out: pIC50 (converted)): 0.11 µM |
| 2.67 | CCCCNc1nc2[nH]ncc2c(=S)s1 | – |
| 670 | Cc1c(C(=O)O)c(C(=O)NC(C)(C)C)nn1C | – |
| – | CCCC/N=c1/sc(=O)[nH]c2cc(C)nn12 | IC50 (read-out: pIC50 (converted)): 0.57 µM |
| 290 | Cc1onc(C(=O)NC(C)(C)C)c1C(=O)O | – |

| SMILES | IC50 (read-out: IC50) [µM] | also measured |
| --- | --- | --- |
| Cc1c(C(=O)O)c(C(=O)NC2CC2)nn1-c1c(Cl)cc(C(F)(F)F)cc1Cl | 12200 | – |
| S=c1sc(NC2CCCCC2)nc2[nH]ncc12 | 0.64 | – |
| S=c1sc(Nc2ccc(Br)cc2)nc2[nH]ncc12 | 6.06 | – |
